Patent EP1806135A2, “The use of a protein tyrosine inhibitor such as genistein in the treatment of diabetic retinopathy or ocular inflammation” (THE JOHNS HOPKINS UNIVERSITY SCHOOL OF MEDICINE, priority 1998, dated 1999)

Tests used:
pigmented rabbits = experiment: Ocular inflammation (vitreous cavity haze) after intravitreal injection of homologous dermal fibroblasts; format: in vivo, rabbit; conditions: graded 3 days after fibroblast injection
Description: The principles of laboratory animal care (NIH publication No. 86-23, revised 1985) were followed. For all studies, pigmented rabbits, weighing 2.5-3 kg were used. The animals were anesthetized with a cocktail of ketamine (25 mg/kg) and xylazine (5 mg/kg), and the pupils were dilated with topical 1 % tropicamide and 0.5% phenylephrine.
Vitreous liquefaction was caused by injection of SF6 gas. After an anterior chamber paracentesis (0.1 ml), pure SF6 gas (0.3 ml) was injected. The 30-gauge needle was inserted inferiorly in order to maximize the vitreous liquefaction.
Rabbit dermal fibroblasts were obtained from rabbit rump biopsy material prepared under sterile conditions: Primary cultures were incubated in Dulbecco's modified Eagle's medium (DMEM) with 30% calf serum, antibiotics (penicillin G sodium, streptomycin sulfate) and antimycotics (amphotericin B) under a humid atmosphere of 5% carbon dioxide in air for 72 hours. The medium was then changed to DMEM with 10% calf serum, antibiotics and antimycotics as above. The cultures were passaged weekly. Cells were harvested by incubating them with 3.5 ml of 0.04% trypsin for 4 minutes and collecting the cells in stop media. The dispersed cells were centrifuged at 1,000 rpm for 5 minutes and resuspended in 1 ml of phosphate-buffered saline. After cell counts of a 0.05 ml aliquot, the suspension was diluted to achieve a final concentration of 2.5x10^4 cells in a 0.1 ml of phosphate-buffered saline.
Fourteen days after the injection of SF6 gas, a 30-gauge needle was inserted 3 mm posterior to the corneoscleral limbus in the superonasal quadrant under microscopic control. With the bevel of the needle directed upward, 2.5x10^4 homologous rabbit dermal fibroblasts suspended in 0.1 ml sterile phosphate-buffered saline were injected just in front of the optic nerve head. This was performed in both eyes of all rabbits. The rabbits were immediately placed on their backs for 1 hour to allow the cells to settle over the vitreous surface. […]

retina = experiment: Retinal toxicity by electroretinography after oral administration; format: in vivo; conditions: orally administered, 75 mg/kg/day to 300 mg/kg/day over a period of six months, Zucker diabetic fatty rats
Text: (§1) An advantage of genistein is that it is very safe and efficacious. […] Also, no effect of orally administered genistein was found with respect to the weight of the ovaries and the uterus in female rats.

PI3-K = experiment: Western immunoblot analysis of immunoprecipitated tyrosine phosphorylated proteins in the retina: PI3-K; format: in vivo, Zucker diabetic fatty rat; conditions: 50 mg/kg intraperitoneally, repeated after two hours; especially in the diabetic rat
Text: (§2) Six pair of litter mates of Zucker rats, i.e., six male retired breeder Zucker diabetic fatty (ZDF, fa/fa) rats and six male retired breeder lean Zucker (fa/+) rats, were obtained (Genetic Models, Inc., Indianapolis, IN). The Zucker diabetic fatty rat develops a microvascular retinopathy involving basement membrane thickening of retinal capillaries, pericyte loss, capillary hypercellularity, and increased endothelial intercellular junctions (Danis et al., Invest. Ophthalmol. Vis. Sci. 34:2367-2371 (1993); and Dosso et al., Diabetologia 33:137-144 (1990)). The microvascular changes known to occur in the Zucker diabetic fatty rats are associated with the elevated levels of VEGF and platelet-derived growth factor (PDGF) and with activation of PTK pathways, especially pathways that include phosphatidylinositol-3 kinase (PI3-K) and mitogen-activated protein kinase (MAPK). […] The average blood glucose value was more than 500 mg/dl for the Zucker diabetic fatty rats and 120 mg/dl for the control lean rats as measured by glucose oxidase assay at the time of death (Danis et al. (1993), supra). […]
(§3) The retinal tissue samples were added to immunoprecipitation buffer (1 % Triton X-100, 150 mM NaCl, 10 mM Tris, pH 7.4, 1 mM EGTA, 0.2 mM sodium vanadate, 0.2 mM PMSF, 0.5 % NP-40) and homogenized. […] Protein concentrations were measured by the Pierce BCA method. […]

[1] = test system: tyrosine phosphorylated proteins; experiment: Western immunoblot analysis of tyrosine phosphorylated proteins in the retina; format: in vivo, Zucker diabetic fatty rat; conditions: 50 mg/kg intraperitoneally, repeated after two hours; diabetic rats compared with the non-treated group
Text: (§4) Six pair of litter mates of Zucker rats, i.e., six male retired breeder Zucker diabetic fatty (ZDF, fa/fa) rats and six male retired breeder lean Zucker (fa/+) rats, were obtained (Genetic Models, Inc., Indianapolis, IN). The Zucker diabetic fatty rat develops a microvascular retinopathy involving basement membrane thickening of retinal capillaries, pericyte loss, capillary hypercellularity, and increased endothelial intercellular junctions (Danis et al., Invest. Ophthalmol. Vis. Sci. 34:2367-2371 (1993); and Dosso et al., Diabetologia 33:137-144 (1990)). The microvascular changes known to occur in the Zucker diabetic fatty rats are associated with the elevated levels of VEGF and platelet-derived growth factor (PDGF) and with activation of PTK pathways, especially pathways that include phosphatidylinositol-3 kinase (PI3-K) and mitogen-activated protein kinase (MAPK). Each pair of litter mates was between six and seven months of age. Rats were fed with a diet of Purina 5008 rat chow. The animals were treated in accordance with The Association for Research in Vision and Ophthalmology (ARVO) Statement for the Use of Animals in Ophthalmic and Vision Research. The average blood glucose value was more than 500 mg/dl for the Zucker diabetic fatty rats and 120 mg/dl for the control lean rats as measured by glucose oxidase assay at the time of death (Danis et al. (1993), supra). […]

PCNA [2] = experiment: Western immunoblot analysis of PCNA in the retina; format: in vivo; conditions: 50 mg/kg intraperitoneally, repeated after two hours; Zucker diabetic fatty rat retina; not down to the lean control level
Text: as §4

67 kDa band = experiment: Total protein profile of retinal homogenate (gel electrophoresis, Coomassie brilliant blue staining); format: in vivo; conditions: 50 mg/kg intraperitoneally, repeated after two hours; retina taken 24 hours later; Zucker diabetic fatty rat
Text: as §2, with “(MAPK). Each pair of litter mates was between six and seven months of age. Rats were fed with a diet of Purina 5008 rat chow.” for “(MAPK).”
Protein concentrations were measured by the Pierce BCA method. […]

MAPK = experiment: Western immunoblot analysis of immunoprecipitated tyrosine phosphorylated proteins in the retina: MAPK; format: in vivo, Zucker diabetic fatty rat; conditions: 50 mg/kg intraperitoneally, repeated after two hours; treated group compared with the non-treated animals group
Text: as §2, §3

PCNA [3] = experiment: Immunohistochemical analysis of PCNA in the retina; format: in vivo; conditions: genistein treated diabetic rats compared with untreated Zucker diabetic fatty rats
Description: Two pairs of rats were used for immunohistochemical analysis of PCNA in the retina. Under deep anesthesia with ketamine and xylazine, the four rats were perfused transcardially with 0.1 M phosphate-buffered saline (PBS; pH 7.4) containing 1 mM orthovanadate, followed by perfusion of 2 % paraformaldehyde in 0.1 M PBS for fixation. The eyes were then removed and immersed in the same fixative for 30 min. The anterior segments were removed and the posterior segments were transferred into a graded sucrose solution from 5 % to 15 % for 2 hrs and incubated in 20 % sucrose solution overnight at 4°C. After cryoprotection, the eyes were molded in O.C.T. compound (Miles, Inc., Elkhart, IN) and frozen in isopentane with dry ice. The posterior segments were cut into 8 µm sections.
The sections were treated with 3 % peroxide to block intrinsic peroxidase, and incubated with 2 % normal horse serum for 20 min. After rinsing in 0.1 M PBS three times, the sections were incubated overnight at 4°C with anti-PCNA antibody (1:1,000 dilution). After the incubation, the sections were rinsed in 0.1 M PBS, and incubated with biotinylated anti-mouse IgG antibody (Vector Laboratories, Inc., Burlingame, CA; 1:500 dilution) for 30 min at room temperature, and then incubated with […] streptavidin (Kirkegaad & Perry Laboratories, Inc., Gaithersburg, MD; 1:500 dilution). […]

[4] = Food intake, body weight and organ weights after oral administration; format: in vivo, rats
Text: as §1

[5] = oral administration, male and female rats
[6] = orally administered, female rats

Row | SMILES | eyes with severe inflammation (vitreous haze) (pigmented rabbits; group 1: 23 µg intravitreally 1 hour (prophylactic) after fibroblast injection, control eyes 47.1%, p<0.01) [%] | eyes with severe inflammation (vitreous haze) (pigmented rabbits; group 2: 23 µg intravitreally 2 days (therapeutic) after fibroblast injection, control eyes 50%, p>0.05) [%] | eyes with severe inflammation (vitreous haze) (pigmented rabbits; group 3: 11.5 µg intravitreally at 1 hour and again 2 days after fibroblast injection, control eyes 77.8%, p<0.05) [%] | toxicity to the retina as measured by electroretinography (retina) | tyrosine phosphorylated PI3-K stained band at 85 kDa (PI3-K) | staining of tyrosine phosphorylated proteins at 50, 66, 97 and 116 kDa [1] | level of PCNA at 36 kDa (PCNA [2]) | amount of staining of the 67 kDa band in total protein profiles (67 kDa band) | level of tyrosine phosphorylated MAPK at 44 kDa (MAPK) | PCNA immunopositive cells in the retina (PCNA [3]) | body weight [4, 5] | food intake [4, 5] | weight of the ovaries [4, 6] | weight of the uterus [4, 6]
1 | COC1C=CC=C(C)C(=O)NC2=CC(=O)C=C(C2=O)C(OC)C(C)CC(OC)C(OC)C(C)C=C(C)C1OC(N)=O (centres unmarked) [HA, Herbimycin A] | 0 | 10 | 22.2 | – | – | – | – | – | – | – | – | – | – | –
2 | O=c1c(-c2ccc(O)cc2)coc2cc(O)cc(O)c12 [genistein, 5,7-dihydroxy-3-(4-hydroxyphenyl)-4H-1-benzopyran-4-one] | – | – | – | nontoxic to the retina | reduced | decreased staining at each molecular weight | reduced this increase | reduced | decreased | fewer immunopositive cells were detected | no effect | no effect | no effect | no effect
